From ChEMBL document CHEMBL5465560, “Selectivity Literature for EUbOPEN Chemogenomic Library” (2024)
Blank lines part the entries; values can stand above or below the compound they belong to.

What was measured:
[1] = molecular target: Protein-tyrosine kinase 2-beta (Homo sapiens) (UniProt Q14289); assay: Selectivity interaction (KinomeScan (DiscoverX)) EUB0000666a PTK2B; conditions: at 10 µM
[2] = molecular target: Phosphatidylinositol 4-phosphate 5-kinase type-1 alpha (Homo sapiens) (UniProt Q99755); assay: Selectivity interaction (KinomeScan (DiscoverX)) EUB0000607a PIP5K1A; conditions: at 10 µM
[3] = molecular target: T1, Ephrin type-B receptor 1 (Homo sapiens) (UniProt P54762); assay: Selectivity interaction (KinomeScan (DiscoverX)) EUB0000607a EPHB1; conditions: at 10 µM
T1 sequence (whole entry): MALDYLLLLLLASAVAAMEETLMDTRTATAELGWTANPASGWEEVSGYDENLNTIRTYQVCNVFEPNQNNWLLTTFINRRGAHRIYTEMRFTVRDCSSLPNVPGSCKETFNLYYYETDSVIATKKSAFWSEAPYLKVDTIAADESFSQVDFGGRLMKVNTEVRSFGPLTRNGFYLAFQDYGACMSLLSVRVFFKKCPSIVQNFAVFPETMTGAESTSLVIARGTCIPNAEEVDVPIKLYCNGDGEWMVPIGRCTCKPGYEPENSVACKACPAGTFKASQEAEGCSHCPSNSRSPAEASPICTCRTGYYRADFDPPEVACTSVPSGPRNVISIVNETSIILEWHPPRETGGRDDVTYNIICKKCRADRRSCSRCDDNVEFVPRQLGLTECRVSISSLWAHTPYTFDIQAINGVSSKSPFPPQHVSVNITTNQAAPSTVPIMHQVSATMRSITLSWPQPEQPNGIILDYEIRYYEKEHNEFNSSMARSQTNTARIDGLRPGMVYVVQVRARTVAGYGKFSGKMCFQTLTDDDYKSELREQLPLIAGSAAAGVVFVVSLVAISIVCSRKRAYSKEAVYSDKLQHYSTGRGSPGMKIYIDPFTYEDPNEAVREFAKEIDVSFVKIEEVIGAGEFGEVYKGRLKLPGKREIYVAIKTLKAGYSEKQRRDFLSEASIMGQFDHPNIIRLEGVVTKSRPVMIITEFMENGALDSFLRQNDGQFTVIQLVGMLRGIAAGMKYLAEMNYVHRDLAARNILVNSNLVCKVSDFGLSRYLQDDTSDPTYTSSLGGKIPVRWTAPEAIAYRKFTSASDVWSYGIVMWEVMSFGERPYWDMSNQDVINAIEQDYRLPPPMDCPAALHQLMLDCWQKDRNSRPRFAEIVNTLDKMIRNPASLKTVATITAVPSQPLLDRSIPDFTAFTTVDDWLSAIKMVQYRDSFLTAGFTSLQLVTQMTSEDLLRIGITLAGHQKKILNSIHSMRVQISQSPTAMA

[4] = molecular target: T2, Serine/threonine-protein kinase Nek5 (Homo sapiens) (UniProt Q6P3R8); conditions: at 10 µM
T2 sequence (whole entry): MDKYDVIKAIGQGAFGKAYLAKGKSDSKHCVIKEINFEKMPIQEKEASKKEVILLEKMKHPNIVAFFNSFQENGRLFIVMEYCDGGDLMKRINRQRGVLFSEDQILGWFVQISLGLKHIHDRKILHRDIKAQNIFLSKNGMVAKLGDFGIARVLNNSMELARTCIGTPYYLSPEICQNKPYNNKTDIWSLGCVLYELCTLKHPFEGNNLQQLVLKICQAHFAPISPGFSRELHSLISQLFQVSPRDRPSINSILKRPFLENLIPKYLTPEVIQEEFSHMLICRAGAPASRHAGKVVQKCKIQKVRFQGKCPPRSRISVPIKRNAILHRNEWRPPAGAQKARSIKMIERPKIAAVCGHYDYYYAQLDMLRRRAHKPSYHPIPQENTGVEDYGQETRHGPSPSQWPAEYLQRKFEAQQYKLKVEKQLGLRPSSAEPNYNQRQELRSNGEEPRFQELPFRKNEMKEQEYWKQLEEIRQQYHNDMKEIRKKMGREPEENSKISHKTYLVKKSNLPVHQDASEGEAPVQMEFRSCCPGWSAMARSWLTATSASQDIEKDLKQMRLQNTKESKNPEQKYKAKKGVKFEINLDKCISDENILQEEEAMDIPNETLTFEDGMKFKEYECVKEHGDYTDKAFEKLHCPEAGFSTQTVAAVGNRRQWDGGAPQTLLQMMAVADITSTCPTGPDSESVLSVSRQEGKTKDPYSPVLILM

[5] = molecular target: Serine/threonine-protein kinase Nek4 (Homo sapiens) (UniProt P51957); assay: Selectivity interaction (Ambit KINOMEscan and KiNATiv profiling in Jurkat cells) EUB0000090b NEK4; type: cell-based; conditions: at 1 µM
[6] = molecular target: T3, Serine/threonine-protein kinase RIO1 (Homo sapiens) (UniProt Q9BRS2); assay: Selectivity interaction (KinomeScan (DiscoverX)) EUB0000229b RIOK1; conditions: at 10 µM
T3 sequence (whole entry): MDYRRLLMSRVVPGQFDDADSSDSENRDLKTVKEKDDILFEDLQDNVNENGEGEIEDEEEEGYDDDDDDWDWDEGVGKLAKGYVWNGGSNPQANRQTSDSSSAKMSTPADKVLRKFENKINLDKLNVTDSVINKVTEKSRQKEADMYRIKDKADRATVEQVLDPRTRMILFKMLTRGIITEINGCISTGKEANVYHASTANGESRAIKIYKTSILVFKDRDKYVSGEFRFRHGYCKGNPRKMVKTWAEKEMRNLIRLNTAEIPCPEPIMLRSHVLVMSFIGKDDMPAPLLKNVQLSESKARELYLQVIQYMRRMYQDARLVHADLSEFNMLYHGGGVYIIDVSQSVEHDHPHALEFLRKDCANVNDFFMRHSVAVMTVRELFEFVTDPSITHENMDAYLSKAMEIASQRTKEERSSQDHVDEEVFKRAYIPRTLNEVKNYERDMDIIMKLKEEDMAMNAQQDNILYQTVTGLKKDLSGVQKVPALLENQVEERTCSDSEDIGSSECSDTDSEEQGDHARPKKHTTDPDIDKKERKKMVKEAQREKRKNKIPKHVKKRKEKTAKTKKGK

[7] = molecular target: Protein kinase C eta type (Homo sapiens) (UniProt P24723); assay: Selectivity interaction (KinomeScan (DiscoverX)) EUB0000092b PRKCH; conditions: at 10 µM
[8] = molecular target: Serine/threonine-protein kinase 35 (Homo sapiens) (UniProt Q8TDR2); assay: Selectivity interaction (KinomeScan (DiscoverX)) EUB0000092b STK35; conditions: at 10 µM
[9] = molecular target: Tyrosine-protein kinase Fyn (Homo sapiens) (UniProt P06241); assay: Selectivity interaction (KinomeScan (DiscoverX)) EUB0000092b FYN; conditions: at 10 µM
Sequence of Tyrosine-protein kinase Fyn (Homo sapiens) (P06241 2-537 limits assumed): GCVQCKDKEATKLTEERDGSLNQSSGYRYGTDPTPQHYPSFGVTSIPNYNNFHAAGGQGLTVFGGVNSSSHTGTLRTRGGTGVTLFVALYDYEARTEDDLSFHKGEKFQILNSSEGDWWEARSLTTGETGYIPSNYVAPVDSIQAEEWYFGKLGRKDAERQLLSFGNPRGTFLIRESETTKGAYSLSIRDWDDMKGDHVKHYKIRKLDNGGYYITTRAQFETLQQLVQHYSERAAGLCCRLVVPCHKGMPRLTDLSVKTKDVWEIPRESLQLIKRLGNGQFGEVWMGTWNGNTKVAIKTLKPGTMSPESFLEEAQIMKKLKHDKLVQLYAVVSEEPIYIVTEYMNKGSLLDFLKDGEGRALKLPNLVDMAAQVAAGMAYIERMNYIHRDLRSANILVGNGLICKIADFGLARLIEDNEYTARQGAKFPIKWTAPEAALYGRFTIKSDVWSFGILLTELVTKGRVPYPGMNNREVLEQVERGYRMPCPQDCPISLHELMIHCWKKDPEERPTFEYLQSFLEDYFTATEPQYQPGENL

Sequence of Serine/threonine-protein kinase 35 (Homo sapiens) (Q8TDR2 whole entry): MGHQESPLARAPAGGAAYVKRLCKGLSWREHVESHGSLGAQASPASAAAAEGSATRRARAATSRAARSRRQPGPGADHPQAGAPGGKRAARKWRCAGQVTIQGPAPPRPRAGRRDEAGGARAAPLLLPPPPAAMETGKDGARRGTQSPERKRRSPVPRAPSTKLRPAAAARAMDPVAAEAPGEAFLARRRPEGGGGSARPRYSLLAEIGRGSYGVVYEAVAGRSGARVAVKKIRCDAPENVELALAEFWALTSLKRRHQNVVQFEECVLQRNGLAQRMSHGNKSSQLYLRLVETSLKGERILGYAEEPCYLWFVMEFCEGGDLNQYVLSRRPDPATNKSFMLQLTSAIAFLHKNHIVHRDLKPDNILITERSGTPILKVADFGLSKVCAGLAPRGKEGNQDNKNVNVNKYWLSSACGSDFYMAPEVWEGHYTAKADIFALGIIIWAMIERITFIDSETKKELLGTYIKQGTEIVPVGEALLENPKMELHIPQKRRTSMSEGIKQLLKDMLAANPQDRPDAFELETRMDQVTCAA
Sequence of Phosphatidylinositol 4-phosphate 5-kinase type-1 alpha (Homo sapiens) (Q99755 whole entry): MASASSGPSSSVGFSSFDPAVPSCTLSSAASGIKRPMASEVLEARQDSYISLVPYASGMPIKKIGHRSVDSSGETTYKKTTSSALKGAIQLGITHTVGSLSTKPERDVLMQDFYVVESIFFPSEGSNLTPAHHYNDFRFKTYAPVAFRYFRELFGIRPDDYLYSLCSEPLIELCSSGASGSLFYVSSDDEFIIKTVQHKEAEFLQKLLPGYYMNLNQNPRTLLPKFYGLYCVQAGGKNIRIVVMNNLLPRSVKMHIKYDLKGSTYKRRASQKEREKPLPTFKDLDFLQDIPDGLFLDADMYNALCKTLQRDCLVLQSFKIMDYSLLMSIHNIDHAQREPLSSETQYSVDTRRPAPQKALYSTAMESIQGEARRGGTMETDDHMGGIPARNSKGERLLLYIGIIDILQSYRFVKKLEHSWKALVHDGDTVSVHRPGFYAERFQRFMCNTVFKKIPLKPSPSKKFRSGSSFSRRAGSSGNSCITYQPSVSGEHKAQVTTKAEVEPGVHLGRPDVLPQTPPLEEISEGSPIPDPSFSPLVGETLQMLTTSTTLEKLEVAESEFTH
Sequence of Protein-tyrosine kinase 2-beta (Homo sapiens) (Q14289 whole entry, looked up): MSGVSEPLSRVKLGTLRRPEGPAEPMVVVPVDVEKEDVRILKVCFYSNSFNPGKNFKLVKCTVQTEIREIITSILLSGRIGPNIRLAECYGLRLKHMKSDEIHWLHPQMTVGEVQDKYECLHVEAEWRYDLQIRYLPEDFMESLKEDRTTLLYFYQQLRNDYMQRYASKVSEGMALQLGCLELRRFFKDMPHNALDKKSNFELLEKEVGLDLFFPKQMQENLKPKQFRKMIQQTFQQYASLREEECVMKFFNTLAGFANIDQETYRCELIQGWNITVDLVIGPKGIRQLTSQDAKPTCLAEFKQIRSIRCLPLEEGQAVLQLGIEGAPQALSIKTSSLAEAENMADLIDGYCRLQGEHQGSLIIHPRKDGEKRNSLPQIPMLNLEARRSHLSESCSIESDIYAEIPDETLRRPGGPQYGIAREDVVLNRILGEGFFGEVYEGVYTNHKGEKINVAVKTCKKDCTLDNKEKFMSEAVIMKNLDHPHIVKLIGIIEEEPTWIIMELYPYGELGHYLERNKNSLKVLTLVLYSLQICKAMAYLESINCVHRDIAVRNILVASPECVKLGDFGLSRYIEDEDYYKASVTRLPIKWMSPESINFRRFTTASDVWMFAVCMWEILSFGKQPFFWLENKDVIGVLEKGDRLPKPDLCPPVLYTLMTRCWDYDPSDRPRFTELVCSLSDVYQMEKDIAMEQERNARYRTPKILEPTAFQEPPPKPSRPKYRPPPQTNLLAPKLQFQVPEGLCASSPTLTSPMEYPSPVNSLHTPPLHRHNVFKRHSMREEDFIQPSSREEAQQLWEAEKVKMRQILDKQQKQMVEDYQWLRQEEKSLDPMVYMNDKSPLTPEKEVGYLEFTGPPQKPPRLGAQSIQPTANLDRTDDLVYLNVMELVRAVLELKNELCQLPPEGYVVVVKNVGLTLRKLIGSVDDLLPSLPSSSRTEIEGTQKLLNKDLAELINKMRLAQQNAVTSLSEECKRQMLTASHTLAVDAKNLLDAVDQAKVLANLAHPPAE
Sequence of Protein kinase C eta type (Homo sapiens) (P24723 whole entry): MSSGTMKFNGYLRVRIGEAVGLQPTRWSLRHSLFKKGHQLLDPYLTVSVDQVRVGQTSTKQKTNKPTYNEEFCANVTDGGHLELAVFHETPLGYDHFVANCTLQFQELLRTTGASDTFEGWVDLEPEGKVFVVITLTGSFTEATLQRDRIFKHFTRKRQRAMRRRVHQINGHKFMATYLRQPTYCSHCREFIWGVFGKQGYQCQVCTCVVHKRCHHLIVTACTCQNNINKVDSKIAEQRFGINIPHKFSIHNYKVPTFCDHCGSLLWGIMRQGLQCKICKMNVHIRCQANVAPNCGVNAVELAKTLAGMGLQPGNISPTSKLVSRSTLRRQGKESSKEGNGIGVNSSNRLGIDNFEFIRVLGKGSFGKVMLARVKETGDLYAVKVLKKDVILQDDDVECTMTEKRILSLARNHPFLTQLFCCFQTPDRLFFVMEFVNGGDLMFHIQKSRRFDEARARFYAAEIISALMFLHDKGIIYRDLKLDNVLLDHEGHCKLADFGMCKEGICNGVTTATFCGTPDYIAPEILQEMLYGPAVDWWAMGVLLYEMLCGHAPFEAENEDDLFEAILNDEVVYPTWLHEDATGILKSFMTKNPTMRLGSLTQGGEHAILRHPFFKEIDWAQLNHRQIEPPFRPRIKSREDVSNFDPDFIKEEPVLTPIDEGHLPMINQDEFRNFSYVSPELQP
Sequence of Serine/threonine-protein kinase Nek4 (Homo sapiens) (P51957 whole entry, looked up): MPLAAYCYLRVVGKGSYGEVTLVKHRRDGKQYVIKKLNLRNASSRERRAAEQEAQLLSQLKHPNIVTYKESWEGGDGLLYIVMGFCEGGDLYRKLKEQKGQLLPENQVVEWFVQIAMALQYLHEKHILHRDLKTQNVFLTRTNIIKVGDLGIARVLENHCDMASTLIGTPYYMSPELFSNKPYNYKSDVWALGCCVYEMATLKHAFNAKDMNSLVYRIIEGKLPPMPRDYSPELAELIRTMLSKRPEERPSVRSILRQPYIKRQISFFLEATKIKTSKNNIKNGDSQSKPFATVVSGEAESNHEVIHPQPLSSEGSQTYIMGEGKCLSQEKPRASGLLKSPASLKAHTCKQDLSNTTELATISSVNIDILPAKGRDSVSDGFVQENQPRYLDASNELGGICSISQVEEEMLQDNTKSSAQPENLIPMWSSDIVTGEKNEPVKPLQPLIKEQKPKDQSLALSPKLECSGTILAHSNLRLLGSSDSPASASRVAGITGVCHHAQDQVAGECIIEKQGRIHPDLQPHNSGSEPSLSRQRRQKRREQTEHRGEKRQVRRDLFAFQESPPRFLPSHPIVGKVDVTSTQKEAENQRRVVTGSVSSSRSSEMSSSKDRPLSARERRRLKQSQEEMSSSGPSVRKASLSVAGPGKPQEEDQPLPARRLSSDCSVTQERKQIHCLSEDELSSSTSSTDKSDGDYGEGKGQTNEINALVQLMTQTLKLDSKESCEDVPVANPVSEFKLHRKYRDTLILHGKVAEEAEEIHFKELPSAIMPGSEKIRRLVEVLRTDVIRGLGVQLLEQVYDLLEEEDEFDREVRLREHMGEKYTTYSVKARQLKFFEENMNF

SMILES: O=C(NOC[C@H](O)CO)c1ccc(F)c(F)c1Nc1ccc(I)cc1F
% of control [1]: 98%

SMILES: CNC(=O)Nc1ccc(-c2nc(N3CC4CCC(C3)O4)c3cnn(C4CCC5(CC4)OCCO5)c3n2)cc1
% of control [2]: 84%
% of control [3]: 90%

% of control [4]: 100%
SMILES: CCN(CC)CCCCNc1ncc2cc(-c3cc(OC)cc(OC)c3)c(NC(=O)NC(C)(C)C)nc2n1

SMILES: CN(C)C/C=C/C(=O)Nc1ccc(C(=O)N2CCCC(Nc3ncc(Cl)c(-c4c[nH]c5ccccc45)n3)C2)cc1 (centres undefined)
% of control [5]: 100%

SMILES: COc1cc(N(C)c2ccnc3ccc(C(F)(F)F)cc23)cc(OC)c1OC
% binding [6]: 95%

SMILES: CCC(=O)N1CCN(c2ccc(-n3c(=O)ccc4cnc5ccc(-c6cnc7ccccc7c6)cc5c43)cc2C(F)(F)F)CC1
% of control [7]: 92%
% of control [8]: 18%
% of control [9]: 49%
